pIC50, pKi: −log10 of the molar value. In brackets after ≈: the same amount, converted by molar mass.
Assays:
[1] = Aqueous solubility of the compound; type: physicochemical; settings: water (aqueous)
[2] = molecular target: T1, Gonadotropin-releasing hormone receptor (Homo sapiens, UniProt P30968); experiment: Inhibition of GnRH receptor
T1 sequence (P30968 whole entry): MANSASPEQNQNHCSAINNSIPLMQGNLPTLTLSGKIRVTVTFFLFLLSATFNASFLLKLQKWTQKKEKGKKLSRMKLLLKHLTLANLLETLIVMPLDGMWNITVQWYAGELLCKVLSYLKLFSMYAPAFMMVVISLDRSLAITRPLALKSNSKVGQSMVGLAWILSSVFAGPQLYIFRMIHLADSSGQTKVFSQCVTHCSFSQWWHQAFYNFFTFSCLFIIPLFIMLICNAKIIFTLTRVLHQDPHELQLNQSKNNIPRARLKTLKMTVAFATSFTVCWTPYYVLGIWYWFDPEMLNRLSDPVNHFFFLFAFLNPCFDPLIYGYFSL

[3] = molecular target: T2, C-C chemokine receptor type 3 (Homo sapiens, UniProt P51677); experiment: Inhibition of CCR3 receptor
T2 sequence (P51677 whole entry): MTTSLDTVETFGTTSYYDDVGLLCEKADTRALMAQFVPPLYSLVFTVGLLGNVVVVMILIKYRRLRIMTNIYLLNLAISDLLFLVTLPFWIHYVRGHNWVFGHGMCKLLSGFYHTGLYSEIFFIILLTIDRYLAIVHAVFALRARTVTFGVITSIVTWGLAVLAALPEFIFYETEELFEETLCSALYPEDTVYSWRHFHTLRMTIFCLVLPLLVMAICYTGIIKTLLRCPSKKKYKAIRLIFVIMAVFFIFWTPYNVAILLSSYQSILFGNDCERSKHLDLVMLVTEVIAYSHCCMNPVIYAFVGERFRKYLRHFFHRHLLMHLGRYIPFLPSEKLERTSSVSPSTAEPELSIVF

| solubility [1] | pIC50 [2] | pKi [3] | SMILES |
| --- | --- | --- | --- |
| 100 µg/mL (≈ 212 µM) |  |  | CCCn1cc(CN2CCN(c3cccc4[nH]c(-c5ccc(C(C)(C)C)cc5)nc34)CC2)nc1C |
| 55 µg/mL (≈ 120 µM) | 8.15 |  | CCc1cc(CN2CCN(c3cccc4[nH]c(-c5ccc(C(C)(C)C)cc5)nc34)CC2)nn1C |
|  |  | 8.05 | Fc1ccc(SCCCN2CCC(n3c(CC(F)(F)F)nc4cc(F)ccc43)CC2)cc1 |
|  |  | 7.00 | Fc1ccc2c(c1)nc(CC(F)(F)F)n2C1CCNCC1 |

Source: ChEMBL document CHEMBL2157888, “The therapeutic journey of benzimidazoles: a review” (Bioorg Med Chem, 2012)
